From US12678509B2, “Inhibitor of apoptosis (IAP) protein antagonists” (Sanford Burnham Prebys Medical Discovery Institute, priority 2019, dated 2026)

What was measured:
[1] = Cell viability (CellTiter-Glo), 6-day compound treatment; assay type: cell-based, Human; details: human, HFF cells, 6 d, read-out: Cell viability at max. concentration
Procedure: (§1) The compound 18a was tested in 16 different cell lines. For 6-day compound treatment 1700 cells per well were plated in a 384-well plate (Corning #781098) and incubated overnight at 37° C./5% CO2. The following day, compounds in 10-fold dilutions were added to the plates and the plates were incubated for 6 days. Afterwards, 20 μL CellTiter-Glo reagent (Promega, #G7570) was added to each well outside of the incubator and the plates were read for luminescence on a Spark® multimode microplate reader (Tecan). Data was fit in GraphPad Prism 8 to a nonlinear regression curve to determine the IC50 of the compounds.

BT549 = experiment: as above; assay type: cell-based, Human
Procedure: as §1

BxPC3 = experiment: as above; assay type: cell-based, Human
Procedure: as §1

H69AR = experiment: as above; assay type: cell-based, Human
Procedure: as §1

HFF = experiment: as above; assay type: cell-based, Human; details: Homo sapiens, 144 h, read-out: IC50 6 d
Procedure: as §1

HL-60 = experiment: as above; assay type: cell-based, Human
Procedure: as §1

MALME 3M = experiment: as above; assay type: cell-based, Human
Procedure: as §1

MDA-MB-231 = experiment: as above; assay type: cell-based, Human
Procedure: as §1

MDA-MB-468 = experiment: as above; assay type: cell-based, Human
Procedure: as §1

MV411 = experiment: as above; assay type: cell-based, Human
Procedure: as §1

MiaPaCa2 = experiment: as above; assay type: cell-based, Human
Procedure: as §1

NCI-H510A = experiment: as above; assay type: cell-based, Human
Procedure: as §1

PANC1 = experiment: as above; assay type: cell-based, Human
Procedure: as §1

SHP-77 = experiment: as above; assay type: cell-based, Human
Procedure: as §1

SW-1271 = experiment: as above; assay type: cell-based, Human
Procedure: as §1

AML-SH-065 = experiment: Cell viability in patient derived AML samples (CellTiterGlo, 72 h); assay type: cell-based, human
Procedure: (§2) Patient AML samples were gathered (under IRB 13-6180) from Scripps MD Anderson, La Jolla, CA Fresh blood samples were subjected to gradient density centrifugation with Ficoll-Paque™ PLUS (17-1440-02, GE Healthcare) and peripheral blood mononuclear cells purified as per manufacturer's protocol.
(§3) 75 nL of 1000× serially diluted IAP inhibitors were spotted in triplicate onto 384-well tissue culture treated plates (Greiner) using a Labcyte Echo acoustic dispensing device. Patient-derived AML cells were maintained in mTeSR1^+1× supplements (Stemcell Technologies) and penicillin/streptomycin/L-glutamine (Omega Scientific Inc.) and Fungizone (HyClone). 25 μL of cell dilution were plated into 384-well plate containing the drugs and incubated for 72 h. Cell viability was assessed by adding 25 μL CellTiterGlo (Promega Corp.) on a Synergy 2 plate reader with Gen5 software (Biotek). % viability was calculated by normalizing luminescence to vehicle only controls (DMSO) in Microsoft Excel and plotted using GraphPad Prism 8. The IC50 values were calculated using log(inhibitor) vs. response—Variable slope (four parameters) equation. (FIG. 6)

AML-SH-074 = experiment: as above; assay type: cell-based, human
Procedure: as §2, §3

AML-SH-075 = experiment: as above; assay type: cell-based, human
Procedure: as §2, §3

[2] = test system: latently infected cell line Jurkat 2D10; experiment: HIV Jurkat 2D10 cells GFP+ assay (reversal of HIV latency); assay type: cell-based
Procedure, shortened: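 Jurkat 2D10 cells exposed to graded doses of test compounds or IAP antagonists (BV-6, SM-164, Birinapant, LCL-161, GDC-0152, AT-406) for 48 hours. GFP expression quantified by flow cytometry. Induction expressed relative to baseline GFP in untreated cells.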

[3] = Homo sapiens, 144 h, read-out: IC50 6 d

**Q.** For CN[C@@H](C)C(=O)N[C@H]1CCS[C@H]2CC(C)(C)[C@@H](C(=O)N[C@H]3c4ccccc4C[C@H]3OCC#CC#CCO[C@@H]3Cc4ccccc4[C@@H]3NC(=O)[C@H]3N4C(=O)[C@@H](NC(=O)[C@H](C)NC)CCS[C@H]4CC3(C)C)N2C1=O [Compound 18a, (2S)-1-{[(4S,7S,9aS)-74{(1S,2R)-2-[(6-{[(1S,2R)-1-({[(4S,7S,9aS)-8,8-Dimethyl-4-{[(2S)-2-(methylammonio)propanoyl]amino}-5-oxooctahydropyrrolo[2,1-b][1,3]thiazepin-7-yl]carbonyl}amino)-2,3-dihydro-1H-inden-2-yl]oxy}hexa-2,4-diyn-1-yl)oxy]-2,3-dihydro-1H-inden-1-yl}carbamoyl)-8,8-dimethyl-5-oxooctahydropyrrolo[2,1-b][1,3]thiazepinyl]amino}-N-methyl-1-oxopropan-2-ammonium dichloride], which viability at 6 d [1] is on record?
**A.** The viability at 6 d was under 100%.

**Q.** And the “Cell viability at max. concentration” value (BT549; BT549, 6 d)?
**A.** The value was “I (I<10%)”.

**Q.** What about the IC50 (BT549; Homo sapiens, BT-549, 144 h, read-out: IC50 6 d) of the same compound?
**A.** Its IC50 is 10 to 100 nM.

**Q.** And the “Cell viability at max. concentration” value (BxPC3; BxPC3, 6 d)?
**A.** Its value is “III (50%<III<100%)”.

**Q.** What about the IC50 (BxPC3; Homo sapiens, BXPC-3, 144 h, read-out: IC50 6 d) of the same compound?
**A.** The IC50 was 1000 to 10000 nM.

**Q.** And the “Cell viability at max. concentration” value (H69AR; 6 d)?
**A.** The value was “I (I<10%)”.

**Q.** What about the IC50 (H69AR; [3]) of the same compound?
**A.** Its IC50 is 1000 to 10000 nM.

**Q.** What about the IC50 (HFF) of the same compound?
**A.** The IC50 was under 100000 nM.

**Q.** And the “Cell viability at max. concentration” value (HL-60; HL-60, 6 d)?
**A.** The value was “I (I<10%)”.

**Q.** What about the IC50 (HL-60; Homo sapiens, HL-60, 144 h, read-out: IC50 6 d) of the same compound?
**A.** The IC50 was 10 to 100 nM.

**Q.** And the IC50 (MALME 3M; Homo sapiens, Malme-3M, 144 h, read-out: IC50 6 d)?
**A.** Its IC50 is 10 to 100 nM.

**Q.** What about the “Cell viability at max. concentration” value (MALME 3M; MALME 3M, 6 d) of the same compound?
**A.** Its value is “I (I<10%)”.

**Q.** What about the IC50 (MDA-MB-231; Homo sapiens, MDA-MB-231, 144 h, read-out: IC50 6 d) of the same compound?
**A.** The IC50 was 100 to 1000 nM.

**Q.** And the “Cell viability at max. concentration” value (MDA-MB-231; MDA-MB-231, 6 d)?
**A.** Its value is “I (I<10%)”.

**Q.** And the IC50 (MDA-MB-468; Homo sapiens, MDA-MB-468, 144 h, read-out: IC50 6 d)?
**A.** The IC50 was 100 to 1000 nM.

**Q.** What about the “Cell viability at max. concentration” value (MDA-MB-468; MDA-MB-468, 6 d) of the same compound?
**A.** The value was “I (I<10%)”.

**Q.** And the IC50 (MV411; Homo sapiens, MV4-11, 144 h, read-out: IC50 6 d)?
**A.** The IC50 was 100 to 1000 nM.

**Q.** What about the “Cell viability at max. concentration” value (MV411; MV411, 6 d) of the same compound?
**A.** Its value is “I (I<10%)”.

**Q.** And the IC50 (MiaPaCa2; Homo sapiens, MIA PaCa-2, 144 h, read-out: IC50 6 d)?
**A.** The IC50 was 1000 to 10000 nM.

**Q.** And the “Cell viability at max. concentration” value (MiaPaCa2; MiaPaCa2, 6 d)?
**A.** The value was “I (I<10%)”.

**Q.** And the “Cell viability at max. concentration” value (NCI-H510A; 6 d)?
**A.** The value was “IV (IV<100%)”.

**Q.** What about the IC50 (NCI-H510A; [3]) of the same compound?
**A.** Its IC50 is under 100000 nM.

**Q.** What about the IC50 (PANC1; Homo sapiens, PANC-1, 144 h, read-out: IC50 6 d) of the same compound?
**A.** The IC50 was under 100000 nM.

**Q.** What about the “Cell viability at max. concentration” value (PANC1; PANC1, 6 d) of the same compound?
**A.** Its value is “IV (IV<100%)”.

**Q.** And the IC50 (SHP-77; Homo sapiens, SHP77, 144 h, read-out: IC50 6 d)?
**A.** The IC50 was under 100000 nM.

**Q.** What about the “Cell viability at max. concentration” value (SHP-77; SHP-77, 6 d) of the same compound?
**A.** Its value is “IV (IV<100%)”.

**Q.** What about the IC50 (SW-1271; Homo sapiens, SW1271, 144 h, read-out: IC50 6 d) of the same compound?
**A.** Its IC50 is 100 to 1000 nM.

**Q.** And the “Cell viability at max. concentration” value (SW-1271; SW-1271, 6 d)?
**A.** The value was “I (I<10%)”.

**Q.** And the IC50 (AML-SH-065; Homo sapiens, 72 h, read-out: AML-SH-065 IC50)?
**A.** The IC50 was under 10 nM.

**Q.** What about the “AML-SH-065 Efficacy” value (AML-SH-065; patient derived AML sample AML-SH-065, 72 h, cell viability at max. concentration) of the same compound?
**A.** The value was “I (I < 10%)”.

**Q.** What about the IC50 (AML-SH-074; Homo sapiens, 72 h, read-out: AML-SH-074 IC50) of the same compound?
**A.** The IC50 was 100 to 1000 nM.

**Q.** And the “AML-SH-074 Efficacy” value (AML-SH-074; patient derived AML sample AML-SH-074, 72 h, cell viability at max. concentration)?
**A.** The value was “I (I < 10%)”.

**Q.** And the IC50 (AML-SH-075; Homo sapiens, 72 h, read-out: AML-SH-075 IC50)?
**A.** The IC50 was 10 to 100 nM.

**Q.** What about the “AML-SH-075 Efficacy” value (AML-SH-075; patient derived AML sample AML-SH-075, 72 h, cell viability at max. concentration) of the same compound?
**A.** Its value is “I (I < 10%)”.

**Q.** And the EC50 ([2]; Homo sapiens, Jurkat, 48 h, read-out: Jurkat 2D10 GFP+ EC50)?
**A.** Its EC50 is 1 to 10 nM.

**Q.** What about the “efficacy in activating the latently infected cell line” value ([2]; Jurkat 2D10, 48 hours, compared with BV-6, SM-164, Birinapant, LCL-161, GDC-0152, AT-406 (FIG. 1)) of the same compound?
**A.** The value was “higher efficacy in activating the latently infected cell line than many known compounds”.
